Laboratory results taken from ChEMBL document CHEMBL2073967, “Characterisation of cerivastatin as a P-glycoprotein substrate: studies in P-glycoprotein-expressing cell monolayers and mdr1a/b knock-out mice” (Naunyn Schmiedebergs Arch Pharmacol, 2004).

Biological target: ATP-dependent translocase ABCB1 (Homo sapiens, UniProt P08183)
Assay: TP_TRANSPORTER: transepithelial transport in L-MDR1 cells
Format: functional, cell-based
Details: pig

Chain of ATP-dependent translocase ABCB1 (P08183 whole entry): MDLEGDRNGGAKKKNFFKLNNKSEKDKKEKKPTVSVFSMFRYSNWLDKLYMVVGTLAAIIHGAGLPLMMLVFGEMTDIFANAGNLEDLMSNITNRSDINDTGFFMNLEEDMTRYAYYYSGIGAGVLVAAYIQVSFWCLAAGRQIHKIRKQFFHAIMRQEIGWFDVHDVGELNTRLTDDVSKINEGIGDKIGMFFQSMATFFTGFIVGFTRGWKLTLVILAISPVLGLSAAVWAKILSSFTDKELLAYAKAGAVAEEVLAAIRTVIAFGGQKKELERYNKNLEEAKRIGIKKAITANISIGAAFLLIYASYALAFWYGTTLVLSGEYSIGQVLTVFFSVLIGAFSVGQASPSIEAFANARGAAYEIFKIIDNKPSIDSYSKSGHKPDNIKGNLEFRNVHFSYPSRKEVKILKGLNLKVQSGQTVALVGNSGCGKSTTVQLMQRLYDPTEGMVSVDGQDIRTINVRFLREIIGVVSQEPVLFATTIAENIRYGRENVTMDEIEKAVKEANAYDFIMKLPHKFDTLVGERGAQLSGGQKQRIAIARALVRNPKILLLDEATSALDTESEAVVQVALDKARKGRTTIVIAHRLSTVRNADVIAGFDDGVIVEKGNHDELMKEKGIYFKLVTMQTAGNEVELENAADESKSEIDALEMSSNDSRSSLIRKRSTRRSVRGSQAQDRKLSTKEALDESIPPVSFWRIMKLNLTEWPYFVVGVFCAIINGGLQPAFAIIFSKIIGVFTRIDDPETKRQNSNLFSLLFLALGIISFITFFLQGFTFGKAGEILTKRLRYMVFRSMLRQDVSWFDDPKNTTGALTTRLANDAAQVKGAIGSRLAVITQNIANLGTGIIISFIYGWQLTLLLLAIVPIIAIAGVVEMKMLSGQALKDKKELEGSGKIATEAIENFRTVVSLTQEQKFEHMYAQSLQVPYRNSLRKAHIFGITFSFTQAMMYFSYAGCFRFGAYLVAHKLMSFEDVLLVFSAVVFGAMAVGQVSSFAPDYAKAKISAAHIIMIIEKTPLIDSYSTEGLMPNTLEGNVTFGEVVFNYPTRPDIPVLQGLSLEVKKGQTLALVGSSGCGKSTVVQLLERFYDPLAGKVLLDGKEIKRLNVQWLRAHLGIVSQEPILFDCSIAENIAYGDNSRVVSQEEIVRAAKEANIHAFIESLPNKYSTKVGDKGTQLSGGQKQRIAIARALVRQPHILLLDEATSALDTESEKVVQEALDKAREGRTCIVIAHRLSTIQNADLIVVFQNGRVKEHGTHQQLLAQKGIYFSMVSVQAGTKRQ

Activity: substrate [+]
Compound: COCc1c(C(C)C)nc(C(C)C)c(/C=C/[C@@H](O)C[C@@H](O)CC(=O)O)c1-c1ccc(F)cc1 [CERIVASTATIN]
